“Also recorded” adds a separate entry of the source.
Experiments:
[1] = Plasma concentration in the osteoarthritis pain model studies; format: in vivo, rat; conditions: for course of plasma concentration: during the pain model time course
[2] = biological target: T1, rat CB2 receptor (Rattus norvegicus, UniProt Q9QZN9); experiment: β-arrestin recruitment assay (PathHunter CHO-K1); format: cell-based; parameters: host or cells: PathHunter CHO-K1; conditions: relative to CP55,940
T1 sequence (Q9QZN9 1-360): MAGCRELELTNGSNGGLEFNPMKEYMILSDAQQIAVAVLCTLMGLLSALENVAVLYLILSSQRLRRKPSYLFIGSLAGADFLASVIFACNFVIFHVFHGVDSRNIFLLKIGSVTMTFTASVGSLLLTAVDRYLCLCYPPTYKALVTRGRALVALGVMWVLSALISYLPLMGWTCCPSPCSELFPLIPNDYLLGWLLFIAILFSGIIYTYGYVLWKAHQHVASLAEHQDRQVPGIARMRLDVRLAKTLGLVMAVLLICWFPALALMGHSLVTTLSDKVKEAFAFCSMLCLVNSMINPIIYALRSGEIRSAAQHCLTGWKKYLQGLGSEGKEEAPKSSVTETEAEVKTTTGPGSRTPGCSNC

[3] = biological target: T2, hCB2 (Homo sapiens, UniProt P34972); experiment: β-arrestin recruitment assay (PathHunter CHO-K1); format: cell-based; parameters: host or cells: PathHunter CHO-K1; conditions: relative to CP55,940
[4] = test system: MIA-induced osteoarthritis in male Sprague Dawley rats; experiment: Osteoarthritis pain model (MIA); format: in vivo, rat; conditions: for in vivo efficacy over time in the osteoarthritis pain model: oral dosing; for time of peak efficacy following dosing / time following dosing at which in vivo efficacy was lost / time following dosing up to which in vivo efficacy was maintained: osteoarthritis pain model
Description: Injection of monosodium iodoacetate (MIA) into a joint (J Rheumatol 14:130-1, 1987) inhibits the activity of glyceraldehyde-3-phosphate dehydrogenase in chondrocytes, resulting in disruption of glycolysis and eventually in cell death. The progressive loss of chondrocytes results in histological and morphological changes of the articular cartilage, closely resembling those seen in osteoarthritis patients.
Osteoarthritis was induced in 200 g male Sprague Dawley rats. After brief anesthesia by isoflurane, rats received a single intra-articular injection of MIA (2 mg) (Catalog #19148, Sigma Aldrich, Saint Louis, Mo.) dissolved in 0.9% sterile saline in a 50 μL volume administered through the patella ligament into the joint space of the left knee with a 30 G needle. Following injection, animals were allowed to recover from anesthesia before being returned to the main housing vivarium.
Typically during disease progression, there is an inflammation period of 0-7 days post-intra-articular injection followed by progressive degeneration of the cartilage and subchondral bone from days 14-55. Efficacy studies with a compound described herein took place from day 14 onwards and were performed twice a week with at least three days of wash-out in between each assay. Three different assays can be used to measure pain. Tactile allodynia can be measured via von Frey assay, hind limb paw weight distribution can be monitored using an incapacitance tester (Columbus Instruments, Columbus, Ohio), and hind limb grip strength can be measured using a grip strength meter (Columbus Instruments, Columbus, Ohio). Briefly, the von Frey assay was performed using the standard up/down method with von Frey filaments. Hind paw weight distribution was determined by placing rats in a chamber so that each hind paw rested on a separate force plate of the incapacitance tester. The force exerted by each hind limb (measured in grams) was averaged over a three second period. Three measurements are taken for each rat, and the change in hind paw weight distribution was calculated. Peak hind limb grip force was conducted by recoding the maximum compressive force exerted on the hind limb mesh gauge set on the grip strength meter. During testing, each rat was restrained and the paw of the injected knee was allowed to grip the mesh. The animal was then pulled in an upward motion until their grip was broken. Each rat was tested three times, with the contralateral paw used as a control.
A baseline was established for animals prior to administration of compounds. The MIA-treated groups of rats were then dosed with either vehicle (PEG400, orally), test compound (at 3 mg/kg, 10 mg/kg, and 30 mg/kg, orally), or morphine (3 mg/kg, subcutaneously). The dosing volume was 500 μL. One hour after dosing, von Frey assay, hind limb weight distribution and/or hind limb grip analysis was performed to measure the efficacy of the test compounds.

[5] = biological target: T1, rat CB2 receptor; experiment: CB2 receptor internalization assay (conventional fluorescence microscopy); format: cell-based; parameters: expressed in transfected cells; conditions: for receptor internalization: FIG. 10 comparison; for receptor internalization efficacy relative to CP55,940, rat CB2: fluorescence microscopy
Experimental: (§1) Receptor internalization assays for the CB2 receptor were performed using a high content imaging system (e.g., IN Cell Analyzer, GE Healthcare Life Sciences, Pittsburgh, Pa.), or by conventional fluorescence microscopy with accessory image analysis software.
[…]. On the day of the assay, growth media was removed from the cell plate and replaced with 25 μL pre-warmed RPMI media. Additionally, 25 μL of pre-warmed RPMI media containing a fluorescent nuclear stain (Hoescht 33342 dye (1:500 dilution); Catalog #H-1399, Invitrogen,) and fluorophore-labeled antibody (Alexa-488 anti-HA monoclonal antibody (1:50 dilution); Catalog #A-21287, Invitrogen, Waltham, Mass.) was added to the cell plate. Test compounds or CP55,940 dissolved in DMSO were serially diluted in DMSO and then further diluted in RPMI to achieve 3× concentrations in 0.5% DMSO. Aliquots (25 μL) of diluted test compounds were added to assay plates, which were then incubated in a water bath at 37° C. for 1 hour. Compound containing media was removed at the end of the treatment period by inversion of the plate. The assay plate was washed twice with PBS (150 μL/well) and the cells were then fixed with 2% formaldehyde/PBS solution for 10 minutes at room temperature. Fluorescence microscopy images were captured for each well on the plate (minimum of 6 per well). The internalization of anti-HA antibody-labeled CB2 receptors results in redistribution of fluorescence from the cell surface to intracellular endosomes, which appear as punctate fluorescent granules within the cell. Quantification of receptor internalization was performed by measuring the Alexa-488 anti-HA monoclonal antibody-stained intracellular granule fluorescence intensities normalized per cell number in each well. Dose-response curves were generated using a minimum of 8 different test concentrations and triplicate determinations were made at each test concentration. Assay performance was monitored by inclusion of a standard CB2 reference agonist such as CP55,940 and agonist internalization efficacies were reported relative to that of the reference agonist.

[6] = biological target: CB1 (Homo sapiens, UniProt P21554); conditions: read-out: potency in GTP-γS binding assays, CB1 receptor; cited from earlier work
[7] = biological target: T2, hCB2; conditions: cited from earlier work
[8] = test system: CB2 receptor over CB1 receptor; conditions: Eur. Urol. 2010 FIG. 2a; cited from earlier work
[9] = test system: human CB2 receptors; experiment: CB2 receptor internalization assay (conventional fluorescence microscopy); format: cell-based
Experimental: as §1
[…]. On the day of the assay, growth media was removed from the cell plate and replaced with 25 μL pre-warmed RPMI media. Additionally, 25 μL of pre-warmed RPMI media containing a fluorescent nuclear stain (Hoescht 33342 dye (1:500 dilution); Catalog #H-1399, Invitrogen,) and fluorophore-labeled antibody (Alexa-488 anti-HA monoclonal antibody (1:50 dilution); Catalog #A-21287, Invitrogen, Waltham, Mass.) was added to the cell plate. Test compounds or CP55,940 dissolved in DMSO were serially diluted in DMSO and then further diluted in RPMI to achieve 3× concentrations in 0.5% DMSO. […] Fluorescence microscopy images were captured for each well on the plate (minimum of 6 per well). The internalization of anti-HA antibody-labeled CB2 receptors results in redistribution of fluorescence from the cell surface to intracellular endosomes, which appear as punctate fluorescent granules within the cell. Quantification of receptor internalization was performed by measuring the Alexa-488 anti-HA monoclonal antibody-stained intracellular granule fluorescence intensities normalized per cell number in each well. […]

T2 sequence (P34972 whole entry): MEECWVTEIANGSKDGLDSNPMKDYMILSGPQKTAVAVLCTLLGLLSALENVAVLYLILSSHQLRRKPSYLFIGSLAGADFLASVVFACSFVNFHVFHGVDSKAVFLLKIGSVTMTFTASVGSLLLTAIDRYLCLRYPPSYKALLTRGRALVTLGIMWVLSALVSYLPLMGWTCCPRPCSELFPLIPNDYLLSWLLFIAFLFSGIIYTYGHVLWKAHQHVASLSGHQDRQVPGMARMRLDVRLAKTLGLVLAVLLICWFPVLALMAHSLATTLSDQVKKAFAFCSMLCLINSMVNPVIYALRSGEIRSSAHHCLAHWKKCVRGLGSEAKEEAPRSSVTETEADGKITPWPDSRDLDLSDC
Sequence of CB1 (P21554 whole entry): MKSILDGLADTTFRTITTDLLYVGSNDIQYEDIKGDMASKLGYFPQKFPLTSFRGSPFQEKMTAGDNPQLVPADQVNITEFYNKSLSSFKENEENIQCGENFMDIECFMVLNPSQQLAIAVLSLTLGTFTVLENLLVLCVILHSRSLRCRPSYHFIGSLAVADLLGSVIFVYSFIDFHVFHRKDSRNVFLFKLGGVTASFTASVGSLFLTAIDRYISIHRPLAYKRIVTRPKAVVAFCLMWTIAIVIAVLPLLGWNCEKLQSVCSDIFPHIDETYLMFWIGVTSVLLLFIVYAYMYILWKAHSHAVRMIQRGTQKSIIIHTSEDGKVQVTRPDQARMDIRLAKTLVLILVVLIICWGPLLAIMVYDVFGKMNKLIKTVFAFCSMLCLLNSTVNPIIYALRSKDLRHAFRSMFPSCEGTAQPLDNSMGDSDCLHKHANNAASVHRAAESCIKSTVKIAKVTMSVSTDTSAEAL

SMILES	course of plasma concentration [1]	in vivo efficacy over time in the osteoarthritis pain model [4]	receptor internalization efficacy relative to CP55,940, rat CB2 [5] [%]	time following dosing up to which in vivo efficacy was maintained [4]	further results
CNC(=O)[C@@H](NC(=O)c1nn(-c2c[n+]([O-])ccn2)c2c1C[C@H]1C[C@@H]21)C(C)(C)C [Compound 704]	increasing plasma concentrations	rapid loss of in vivo efficacy	–	–	β-arrestin efficacy compared to CP55,940, rat CB2 [2]: 88%; β-arrestin efficacy compared to CP55,940, human CB2 [3]: 106%; time of peak efficacy following dosing [4]: one
CC(C)(CO)NC(=O)c1nn(-c2ccc(F)cc2F)c2c1C[C@H]1C[C@@H]21 [Compound 493]	high plasma concentrations that did not decline significantly until four hours following dosing	rapid loss of in vivo efficacy	58	–	receptor internalization [5]: low receptor internalization; time following dosing at which in vivo efficacy was lost [4]: two and four
CCCCCCC(C)(C)c1cc(O)c(C2CC(=O)[C@H]3C[C@@H]2C3(C)C)c(OC(=O)/C=C/C(=O)O)c1 (some centres unmarked) [cannabinor]	–	–	–	–	EC50 [6]: 5.59 µM; agonist character at the CB2 receptor upon closer examination of the published data ([7]; Eur. Urol. 2010 FIG. 2b): only a partial agonist; agonist character at the human CB2 receptor as the publication suggests [7]: full agonist; selectivity for the CB2 receptor over the CB1 receptor (GTP-γS) [7]: 321 fold; EC50 ([7]; read-out: potency in GTP-γS binding assays, CB2 receptor): 0.0174 µM; selectivity measured in radioligand binding assays [8]: approximately 10 fold
O=C(NC1(C(F)(F)F)CCC1)c1nn(-c2c[n+]([O-])ccn2)c2c1C[C@@H]1C[C@H]21 [Compound 765]	decreasing plasma concentrations	sustained in vivo efficacy	99	six	receptor internalization efficacy relative to CP55,940, human CB2 [9]: 97%
CC(C)(NC(=O)c1nn(-c2c[n+]([O-])ccn2)c2c1C[C@@H]1C[C@H]21)C(F)(F)F [Compound 919]	rapidly declining plasma concentrations; also recorded: decreasing plasma concentrations	sustained in vivo efficacy	92	six	receptor internalization efficacy relative to CP55,940, human CB2 [9]: 95%
O=C(N[C@H](CO)C1CCOCC1)c1nn(-c2c[n+]([O-])ccn2)c2c1C[C@H]1C[C@@H]21 [Compound 841]	rapidly declining plasma concentrations; also recorded: decreasing plasma concentrations	sustained in vivo efficacy	105	four	concentration at 6 h ([1]; rat, plasma, oral, when efficacy was lost, read-out: plasma drug levels at the six hour timepoint): < 3 ng/mL; receptor internalization [5]: high receptor internalization; time following dosing at which in vivo efficacy was lost [4]: six
CC(CO)(CO)NC(=O)c1nn(-c2cc(C#N)ccn2)c2c1C[C@H]1C[C@@H]21 [Compound 820]	high plasma concentrations	rapid loss of in vivo efficacy	–	–	β-arrestin efficacy compared to CP55,940, rat CB2 [2]: 56%; β-arrestin efficacy compared to CP55,940, human CB2 [3]: 82%; time of peak efficacy following dosing [4]: one

Reference: US20180252736A1, “CB2 RECEPTOR INTERNALIZATION” (Arena Pharmaceuticals, Inc., priority 2015, published 2018)
